Like-named read-outs stand apart in the source and are kept apart here.
Columns and labels:
[1] = target: T1, human aromatase enzyme (human placental microsomes) (Homo sapiens, UniProt P11511); test: Human placental aromatase inhibition assay; format: biochemical
T1 construct: evaluated against human placental microsomes (aromatase enzyme); from tissue; host or cells: human placenta (microsomes)
T1 sequence (P11511 1-503): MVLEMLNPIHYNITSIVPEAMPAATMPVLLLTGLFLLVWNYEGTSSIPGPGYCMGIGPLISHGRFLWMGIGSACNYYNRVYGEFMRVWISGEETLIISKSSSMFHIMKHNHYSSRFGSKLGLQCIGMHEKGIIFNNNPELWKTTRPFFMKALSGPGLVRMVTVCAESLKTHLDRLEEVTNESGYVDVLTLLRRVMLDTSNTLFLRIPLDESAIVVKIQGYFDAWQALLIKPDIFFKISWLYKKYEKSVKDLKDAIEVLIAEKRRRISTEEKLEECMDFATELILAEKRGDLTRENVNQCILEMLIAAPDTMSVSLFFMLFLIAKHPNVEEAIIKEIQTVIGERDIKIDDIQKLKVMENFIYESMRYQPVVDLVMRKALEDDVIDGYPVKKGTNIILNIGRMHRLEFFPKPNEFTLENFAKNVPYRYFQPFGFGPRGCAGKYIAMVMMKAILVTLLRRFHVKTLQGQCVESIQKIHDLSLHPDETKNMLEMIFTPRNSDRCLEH

[2] = system: BJ (human fibriblast) cell line; test: Cytotoxicity against BJ (human fibroblast) cell line
[3] = human placental microsomes, testosterone to 17β-estradiol conversion, UPLC, read-out: IC50 against human aromatase

SMILES	IC50 [1, 3] [nM]	cytotoxicity against BJ cell line [2]	IC50 [1] [nM]
CC1=CC(=O)C=C2CC[C@@H]3[C@H](CC[C@]4(C)C(=O)CC[C@@H]34)[C@@]12C [Compound 1, atamestane, reference compound]	13.8 ± 0.2		
CC1=CC(=O)C=C2CC[C@@H]3[C@H](CC[C@]4(C)C(=O)CC[C@@]34O)[C@@]12C [Compound 2, 14α-hydroxy-1-methylandrosta-1,4-diene-3,17-dione]	9.7 ± 0.72	non-cytotoxic	
CCCCCCC(=O)O[C@H]1CC[C@H]2[C@@H]3CC[C@H]4CC(=O)[C@H](C)C[C@]4(C)[C@H]3CC[C@]12C [Compound 3, drostanolone enanthate, reference compound]	6.4 ± 0.06		
CC1=C[C@@]2(C)C(=CC1=O)CC[C@H]1[C@@H]3CC[C@H](O)[C@@]3(C)[C@H](O)C[C@@H]12 [Compound 4, 2-methylandrosta-12β,17β-dihydroxy-1,4-diene-3-one]	4.23 ± 0.133	non-cytotoxic	
C[C@@H]1C[C@@]2(C)[C@@H](CC[C@H]3[C@@H]4CC[C@H](O)[C@@]4(C)CC[C@@]32O)CC1=O [Compound 5, 2α-methyl-9α,17β-dihydroxy-5α-androstan-3-one]	793 ± 29.9	non-cytotoxic	
C=C1C[C@@H]2[C@H]([C@H](O)C[C@]3(C)[C@@H](O)CC[C@@H]23)[C@@]2(C)C=CC(=O)C=C12 [Compound 8, 11α,17β-dihydroxy-6-methylene-androsta-1,4-diene-3-one]		non-cytotoxic	12800 ± 844

Reference: US20210308144A1 (priority 2021, published 2021)
